Numbered stars: 1 amine (or outer) side, 2 acyl side, 3 side chain; on linkers, the order of the positions; unused ones are H or OH. Bridge positions count the residues as written; N and C are the ends. Square brackets hold non-standard residues; d marks the D form. Side chains are listed from the residue outwards. Peptide text beside a SMILES is read from it. * marks the point of attachment. γGlu = O=C(O)[C@H](CCC(=O)[*:2])N[*:1]; Palmitoyl = CCCCCCCCCCCCCCCC(=O)*; Myristoyl = CCCCCCCCCCCCCC(=O)*; Lauroyl = CCCCCCCCCCCC(=O)*; Dab = NCC[C@H](N)C(=O)O
Legend:
[1] = Cytotoxicity, MTT reduction assay, COS-7 cells; format: cell-based; settings: African green monkey, COS-7 cells (CRL-1651), 12.5-50 μM
How it was run: (§1)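 HELA (4000/well) and COS-7 (3400/well) cells were grown 24 h, then exposed 48 h at 37° C to peptides at 12.5, 25 and 50 μM in triplicate. MTT reduction read at 595 nm; growth % relative to time-zero, and GI50 interpolated by trend line.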

[2] = Plasma stability in mouse plasma; format: in vitro ADME; settings: mouse plasma, 37° C.; for remaining at 24 h, 10 μM: 1440 min, read-out: mouse pl. cpd left at 1440 min
How it was run: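 Peptides (1 mM DMSO/H2O stock) were spiked into human or mouse plasma in triplicate and incubated at 37 °C, sampling from 0 to 1440 min. Samples were quenched in formic acid/acetonitrile and analysed by LC/MS MRM. Remaining percent of t=0 was calculated and T1/2 derived by trend fitting.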

human CXCR4 = molecular target: T1, human CXCR4 (Homo sapiens, UniProt P61073); assay: Ca2+-assay: CXCR4-antagonizing activity (SDF-1 induced calcium mobilization); format: cell-based; settings: mouse pre-B cell line 300-19 transfected with human CXCR4; SDF-1 induced Ca2+ mobilization; read-out: IC50% [nM] ± SD, CXCR4 receptor
T1 construct: expressed in transfected cells; host or cells: mouse pre-B cell line 300-19
T1 sequence (P61073 whole entry): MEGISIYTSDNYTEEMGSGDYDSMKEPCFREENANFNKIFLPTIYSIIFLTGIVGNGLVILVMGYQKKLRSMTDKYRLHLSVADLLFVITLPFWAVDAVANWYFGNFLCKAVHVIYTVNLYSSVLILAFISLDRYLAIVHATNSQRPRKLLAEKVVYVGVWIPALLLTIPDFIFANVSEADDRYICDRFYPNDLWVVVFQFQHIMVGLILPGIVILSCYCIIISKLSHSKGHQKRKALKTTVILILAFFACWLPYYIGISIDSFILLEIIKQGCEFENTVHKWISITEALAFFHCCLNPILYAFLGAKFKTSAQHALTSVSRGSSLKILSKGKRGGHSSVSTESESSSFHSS
How it was run: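 Mouse pre-B 300-19 cells stably expressing human CXCR4, loaded with Calcium 4 dye in HBSS/20 mM HEPES pH 7.4/0.1% BSA for 1 h at RT. Peptides added before SDF-1; fluorescence (ex 485/em 525 nm) followed for 90 s. IC50 from four-parameter logistic fit of % maximal SDF-1 response.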

[3] = test system: human red blood cells (hRBC); assay: Hemolysis of human red blood cells; format: cell-based; settings: 20% hRBC, 1 h, 37° C.
How it was run: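 Washed fresh human erythrocytes (20% v/v, ~0.9×10^9 cells/mL final) incubated with compound at 100 μM for 1 h at 37 °C with shaking. Supernatant OD540 read; % hemolysis expressed relative to 2.5% Triton X-100 lysis (100%), with PBS/0.001% acetic acid as 0%.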

[4] = Cytotoxicity, MTT reduction assay, HELA cells; format: cell-based; settings: human, HELA cells (Acc57), 12.5-50 μM
How it was run: as §1

Compound: CCCCCCCCCCCCCC(=O)N[C@@H](CCC(=O)NCCCC[C@@H]1NC(=O)[C@H](Cc2ccc(O)cc2)NC(=O)[C@@H]2CSSC[C@H](NC(=O)[C@H](Cc3ccc(O)cc3)NC(=O)[C@H](Cc3c[nH]cn3)NC(=O)[C@H](Cc3ccc(O)cc3)NC(=O)[C@@H]3CCCN3C(=O)[C@H]3CCCN3C(=O)[C@H](CCCCN)NC1=O)C(=O)N[C@@H](CO)C(=O)N[C@@H](C)C(=O)N1CCC[C@@H]1C(=O)N[C@@H](CCN)C(=O)N[C@@H](CCCNC(=N)N)C(=O)N[C@@H](Cc1ccc(O)cc1)C(=O)N2)C(=O)O [Ex. 28] (cyclo(YHYCSA[dP][Dab]RYCYK([γGlu-Myristoyl])K[dP]P); disulfide 4-11)
- GI50 at 48 h [1]: > 50 µM
- remaining at 24 h, 10 μM [2]: 78%
- mouse pl. T1/2 ([2]; up to 1440 min): 24 h
- IC50 (human CXCR4): 2.1 ± 0.1 nM
- Hemolysis at 100 μM [3]: 1.9%
- GI50 at 48 h [4]: > 39 µM

Compound: CCCCCCCCCCCCCCCC(=O)NCCCC[C@@H]1NC(=O)[C@H](Cc2ccc(O)cc2)NC(=O)[C@@H]2CSSC[C@H](NC(=O)[C@H](Cc3ccc(O)cc3)NC(=O)[C@H](Cc3c[nH]cn3)NC(=O)[C@H](Cc3ccc(O)cc3)NC(=O)[C@@H]3CCCN3C(=O)[C@H]3CCCN3C(=O)[C@H](CCCCN)NC1=O)C(=O)N[C@@H](CO)C(=O)N[C@@H](C)C(=O)N1CCC[C@@H]1C(=O)N[C@@H](CCN)C(=O)N[C@@H](CCCNC(=N)N)C(=O)N[C@@H](Cc1ccc(O)cc1)C(=O)N2 [Ex. 20] (cyclo(YHYCSA[dP][Dab]RYCYK(Palmitoyl)K[dP]P); disulfide 4-11)
- GI50 at 48 h [1]: > 50 µM
- remaining at 24 h, 10 μM [2]: 83%
- mouse pl. T1/2 ([2]; up to 1440 min): 24 h
- IC50 (human CXCR4): 4 ± 1.8 nM
- Hemolysis at 100 μM [3]: 9.1%
- GI50 at 48 h [4]: > 31 µM

Compound: CCCCCCCCCCCC(=O)N[C@@H](CCC(=O)NCCCC[C@@H]1NC(=O)[C@H](Cc2ccc(O)cc2)NC(=O)[C@@H]2CSSC[C@H](NC(=O)[C@H](Cc3ccc(O)cc3)NC(=O)[C@H](Cc3c[nH]cn3)NC(=O)[C@H](Cc3ccc(O)cc3)NC(=O)[C@@H]3CCCN3C(=O)[C@H]3CCCN3C(=O)[C@H](CCCCN)NC1=O)C(=O)N[C@@H](CO)C(=O)N[C@@H](C)C(=O)N1CCC[C@@H]1C(=O)N[C@@H](CCN)C(=O)N[C@@H](CCCNC(=N)N)C(=O)N[C@@H](Cc1ccc(O)cc1)C(=O)N2)C(=O)O [Ex. 25] (cyclo(YHYCSA[dP][Dab]RYCYK([γGlu-Lauroyl])K[dP]P); disulfide 4-11)
- GI50 at 48 h [1]: > 50 µM
- remaining at 24 h, 10 μM [2]: 74%
- mouse pl. T1/2 ([2]; up to 1440 min): 24 h
- IC50 (human CXCR4): 3.5 ± 0.1 nM
- Hemolysis at 100 μM [3]: 1.0%
- GI50 at 48 h [4]: > 43 µM

Compound: CCCCCCCCCCCC(=O)NCCCC[C@@H]1NC(=O)[C@H](Cc2ccc(O)cc2)NC(=O)[C@@H]2CSSC[C@H](NC(=O)[C@H](C)NC(=O)[C@H](Cc3c[nH]cn3)NC(=O)[C@H](Cc3ccc(O)cc3)NC(=O)[C@@H]3CCCN3C(=O)[C@H]3CCCN3C(=O)[C@H](CCCCN)NC1=O)C(=O)N[C@@H](CCCNC(=N)N)C(=O)N[C@@H](C)C(=O)N1CCC[C@@H]1C(=O)N[C@@H](CCN)C(=O)N[C@@H](CCCNC(=N)N)C(=O)N[C@@H](Cc1ccc(O)cc1)C(=O)N2 [Ex. 17] (cyclo(YHACRA[dP][Dab]RYCYK(Lauroyl)K[dP]P); disulfide 4-11)
- GI50 at 48 h [1]: > 50 µM
- remaining at 24 h, 10 μM [2]: 59%
- half-life at 10 μM ([2]; up to 1440 min, read-out: mouse pl. T1/2): 19.5 h
- IC50 (human CXCR4): 2.8 ± 0.4 nM
- Hemolysis at 100 μM [3]: 4.3%
- GI50 at 48 h [4]: > 44 µM

Compound: CCCCCCCCCCCC(=O)N[C@@H](CCC(=O)NCCCC[C@@H]1NC(=O)[C@H](Cc2ccc(O)cc2)NC(=O)[C@@H]2CSSC[C@H](NC(=O)[C@H](C)NC(=O)[C@H](Cc3c[nH]cn3)NC(=O)[C@H](Cc3ccc(O)cc3)NC(=O)[C@@H]3CCCN3C(=O)[C@H]3CCCN3C(=O)[C@H](CCCCN)NC1=O)C(=O)N[C@@H](CCCNC(=N)N)C(=O)N[C@@H](C)C(=O)N1CCC[C@@H]1C(=O)N[C@@H](CCN)C(=O)N[C@@H](CCCNC(=N)N)C(=O)N[C@@H](Cc1ccc(O)cc1)C(=O)N2)C(=O)O [Ex. 26] (cyclo(YHACRA[dP][Dab]RYCYK([γGlu-Lauroyl])K[dP]P); disulfide 4-11)
- GI50 at 48 h [1]: > 50 µM
- remaining at 24 h, 10 μM [2]: 65%
- mouse pl. T1/2 ([2]; up to 1440 min): 24 h
- IC50 (human CXCR4): 2.4 ± 0.5 nM
- Hemolysis at 100 μM [3]: 1.2%
- GI50 at 48 h [4]: > 50 µM

Compound: CCCCCCCCCCCCCCCC(=O)N[C@@H](CCC(=O)NCCCC[C@@H]1NC(=O)[C@H](Cc2ccc(O)cc2)NC(=O)[C@@H]2CSSC[C@H](NC(=O)[C@H](Cc3ccc(O)cc3)NC(=O)[C@H](Cc3c[nH]cn3)NC(=O)[C@H](Cc3ccc(O)cc3)NC(=O)[C@@H]3CCCN3C(=O)[C@H]3CCCN3C(=O)[C@H](CCCCN)NC1=O)C(=O)N[C@@H](CO)C(=O)N[C@@H](C)C(=O)N1CCC[C@@H]1C(=O)N[C@@H](CCN)C(=O)N[C@@H](CCCNC(=N)N)C(=O)N[C@@H](Cc1ccc(O)cc1)C(=O)N2)C(=O)O [Ex. 29] (cyclo(YHYCSA[dP][Dab]RYCYK([γGlu-Palmitoyl])K[dP]P); disulfide 4-11)
- GI50 at 48 h [1]: > 50 µM
- remaining at 24 h, 10 μM [2]: 53%
- mouse pl. T1/2 ([2]; up to 1440 min): 24 h
- IC50 (human CXCR4): 1.9 ± 0.8 nM
- Hemolysis at 100 μM [3]: 5.4%
- GI50 at 48 h [4]: > 47 µM
